Converted amounts (≈) assume the structure as drawn.
Experiment: Toxicity against brine shrimp
Type: organism-based
Conditions: artemia, in vivo

Structure (SMILES): COC(=O)c1cc(O)c(O)c2c1[C@]1(C)CC[C@H]3C(C)(C)CCC[C@]3(C)[C@H]1C2 [PELOROL]
- LC50: 5 µg/mL (≈ 13.4 µM)

From ChEMBL document CHEMBL1155572, “Sesquiterpene quinols/quinones from the Micronesian sponge Petrosaspongia metachromia” (J Nat Prod, 2000)
